Experimental data: US20230167088A1, “1-PYRAZINYLPYRAZOLYL-3-OXYALKYL ACIDS AND THEIR DERIVATIVES, AND THEIR USE FOR CONTROL OF UNDESIRED PLANT GROWTH” (BAYER AKTIENGESELLSCHAFT, priority 2020, published 2023)

Assays:
ALOMY [1] = test: Herbicidal post-emergence action 1a (greenhouse pots, visual rating); format: in vivo, Alopecurus myosuroides; details: rated visually about 3 weeks after treatment, 100% = plants have died, 0% = like control plants
In short: (§1)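 Weeds and crops sown in sandy loam in greenhouse pots were sprayed post-emergence at the one-leaf stage (2–3 weeks after sowing) with WP or EC formulations plus 0.5% additive at 600 l/ha water, 320 and/or 80 g/ha. About 3 weeks later damage was rated visually against untreated controls (0% = no effect, 100% = dead).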

AVEFA [2] = test: as above; format: in vivo, Avena fatua; details: rated visually about 3 weeks after treatment, 100% = plants have died, 0% = like control plants
In short: as §1

ECHCG [3] = test: as above; format: in vivo, Echinochloa crus-galli; details: rated visually about 3 weeks after treatment, 100% = plants have died, 0% = like control plants
In short: as §1

LOLRI [4] = test: as above; format: in vivo, Lolium rigidum; details: rated visually about 3 weeks after treatment, 100% = plants have died, 0% = like control plants
In short: as §1

SETVI [5] = test: as above; format: in vivo, Setaria viridis; details: rated visually about 3 weeks after treatment, 100% = plants have died, 0% = like control plants
In short: as §1

ABUTH [6] = test: as above; format: in vivo, Abutilon theophrasti; details: visual rating about 3 weeks after treatment
In short: as §1

AMARE [7] = test: as above; format: in vivo, Amaranthus retroflexus; details: visual rating about 3 weeks after treatment
In short: as §1

MATIN [8] = test: as above; format: in vivo, Matricaria inodora; details: visual rating about 3 weeks after treatment
In short: as §1

PHBPU [9] = test: as above; format: in vivo, Pharbitis purpurea; details: visual rating about 3 weeks after treatment
In short: as §1

POLCO [10] = test: as above; format: in vivo, Polygonum convolvulus; details: visual rating about 3 weeks after treatment
In short: as §1

VERPE [11] = test: as above; format: in vivo, Veronica persica; details: visual rating about 3 weeks after treatment
In short: as §1

ALOMY [12] = test: Herbicidal pre-emergence action 2a (greenhouse pots, visual scoring); format: in vivo, Alopecurus myosuroides; details: dosage 320 g/ha, visual scoring after about 3 weeks
In short: (§2)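 Pre-emergence greenhouse pot test: WP or EC formulations sprayed onto covering soil over sown seeds at 600 l/ha water with 0.5% additive, at rates corresponding to 320 g/ha and/or 80 g/ha. Visual % activity versus untreated controls after about 3 weeks (100% = plants dead).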

AVEFA [13] = test: as above; format: in vivo, Avena fatua; details: dosage 320 g/ha, visual scoring after about 3 weeks
In short: as §2

ECHCG [14] = test: as above; format: in vivo, Echinochloa crus-galli; details: dosage 320 g/ha, visual scoring after about 3 weeks
In short: as §2

LOLRI [15] = test: as above; format: in vivo, Lolium rigidum; details: dosage 320 g/ha, visual scoring after about 3 weeks vs untreated controls
In short: as §2

SETVI [16] = test: as above; format: in vivo, Setaria viridis; details: dosage 320 g/ha, visual scoring after about 3 weeks vs untreated controls
In short: as §2

ABUTH [17] = test: as above; format: in vivo, Abutilon theophrasti; details: dosage 320 g/ha, visual scoring after about 3 weeks vs untreated controls
Excerpt: [table] a) Seeds of monocotyledonous and dicotyledonous weed plants and crop plants are placed in plastic or organic plant pots and covered with soil. The compounds of the invention, formulated in the form of wettable powders (WP) or as emulsion concentrates (EC), are then applied onto the surface of the covering soil as aqueous suspension or emulsion with addition of 0.5% additive at a water application rate of 600 1/ha (converted). After the treatment, the pots are placed in a greenhouse and kept under good growth conditions for the trial plants. After about 3 weeks, the effect of the preparations is scored visually in comparison with untreated controls as percentages. For example, 100% activity=the plants have died, 0% activity=like control plants. Tables B1 to B15 below show the effects of selected compounds of the general formula (I) according to Tables 1 and 2 on various harmful plants and an application rate corresponding to 320 g/ha and/or 80 g/ha, which were obtained by the experimental procedure mentioned above.

AMARE [18] = test: as above; format: in vivo, Amaranthus retroflexus; details: dosage 320 g/ha, visual scoring after about 3 weeks vs untreated controls
In short: as §2

MATIN [19] = test: as above; format: in vivo, Matricaria inodora; details: dosage 320 g/ha, visual scoring after about 3 weeks vs untreated controls
In short: as §2

PHBPU [20] = test: as above; format: in vivo, Pharbitis purpurea; details: dosage 320 g/ha, visual scoring after about 3 weeks vs untreated controls
In short: as §2

POLCO [21] = test: as above; format: in vivo, Polygonum convolvulus; details: dosage 320 g/ha, visual scoring after about 3 weeks vs untreated controls
In short: as §2

VERPE [22] = test: as above; format: in vivo, Veronica persica; details: dosage 320 g/ha, visual scoring after about 3 weeks vs untreated controls
In short: as §2

Compound	Post-emergence action against ALOMY in % (ALOMY [1]; Dosage 80 g/ha)	Post-emergence action against ALOMY in % (ALOMY [1]; Dosage 320 g/ha)	Post-emergence action against AVEFA in % (AVEFA [2]; Dosage 80 g/ha)	Post-emergence action against AVEFA in % (AVEFA [2]; Dosage 320 g/ha)	Post-emergence action against ECHCG in % (ECHCG [3]; Dosage 80 g/ha)	Post-emergence action against ECHCG in % (ECHCG [3]; Dosage 320 g/ha)	Post-emergence action against LOLRI in % (LOLRI [4]; Dosage 320 g/ha)	Post-emergence action against SETVI in % (SETVI [5]; Dosage 80 g/ha)	Post-emergence action against SETVI in % (SETVI [5]; Dosage 320 g/ha)	Post-emergence action against ABUTH in % (ABUTH [6]; dosage 80 g/ha)	Post-emergence action against ABUTH in % (ABUTH [6]; dosage 320 g/ha)	Post-emergence action against AMARE in % (AMARE [7]; dosage 320 g/ha)	Post-emergence action against PHBPU in % (PHBPU [9]; dosage 80 g/ha)	Post-emergence action against PHBPU in % (PHBPU [9]; dosage 320 g/ha)	Post-emergence action against POLCO in % (POLCO [10]; dosage 320 g/ha)	Post-emergence action against VERPE in % (VERPE [11]; dosage 80 g/ha)	Post-emergence action against VERPE in % (VERPE [11]; dosage 320 g/ha)	Pre-emergence action against ALOMY in % (ALOMY [12])	Pre-emergence action against AVEFA in % (AVEFA [13])	Pre-emergence action against ECHCG in % (ECHCG [14])	further results
COC(=O)[C@@H](C)Oc1nn(-c2cnccn2)c(-c2cncc(F)c2)c1Cl [Example I-95]	100%	100%	80%	90%	90%	90%	90%	90%	90%	90%	90%	90%	90%	90%	90%	90%	90%	100%	90%	100%	Post-emergence action against LOLRI in % (LOLRI [4]; Dosage 80 g/ha): 90%; Post-emergence action against AMARE in % (AMARE [7]; dosage 80 g/ha): 90%; Post-emergence action against MATIN in % (MATIN [8]; dosage 80 g/ha): 80%; Post-emergence action against MATIN in % (MATIN [8]; dosage 320 g/ha): 90%; Post-emergence action against POLCO in % (POLCO [10]; dosage 80 g/ha): 90%; Pre-emergence action against LOLRI in % (LOLRI [15]): 100%; Pre-emergence action against SETVI in % (SETVI [16]): 100%; Pre-emergence action against ABUTH in % (ABUTH [17]): 90%; Pre-emergence action against AMARE in % (AMARE [18]): 100%; Pre-emergence action against MATIN in % (MATIN [19]): 100%; Pre-emergence action against PHBPU in % (PHBPU [20]): 90%; Pre-emergence action against POLCO in % (POLCO [21]): 100%; Pre-emergence action against VERPE in % (VERPE [22]): 100%
CCOC(=O)[C@@H](C)Oc1nn(-c2cnccn2)c(-c2cncc(F)c2)c1Cl [Example I-98]	80%	80%	80%	80%	80%	80%	90%	80%	80%	80%	80%	80%	90%	90%	80%	80%	80%	90%	80%	100%	Pre-emergence action against LOLRI in % (LOLRI [15]): 90%; Pre-emergence action against SETVI in % (SETVI [16]): 100%; Pre-emergence action against ABUTH in % (ABUTH [17]): 90%; Pre-emergence action against AMARE in % (AMARE [18]): 100%; Pre-emergence action against MATIN in % (MATIN [19]): 90%; Pre-emergence action against PHBPU in % (PHBPU [20]): 80%; Pre-emergence action against POLCO in % (POLCO [21]): 90%; Pre-emergence action against VERPE in % (VERPE [22]): 100%
